This is an account of results in publication PMC11162475, “Rule-based omics mining reveals antimicrobial macrocyclic peptides against drug-resistant clinical isolates” (Nature Communications, 2024).

For data set [1], the system named is S. aureus ATCC 25923. The experiment in a line: Lysis of S. aureus culture. Conditions: S. aureus ATCC 25923 culture OD600 1.0, 10×MIC, 24 h. It counts as cell-based, Staphylococcus aureus. Here is the method: Growth kinetics of S. aureus
Massatide A or B was prepared in a 96-well plate at the concentration of 8×MIC, 4×MIC, 2×MIC, 1×MIC and 0.5×MIC , respectively. The MHB medium with no compound was used as a control. Then, the overnight culture of S. aureus ATCC 25923 cells was added to the medium at 1:1,000. The plate was incubated with shaking in SpectraMax iD3 (MOLECULAR DEVICES) at 30 ℃. OD600 was measured every 30 min for 36 hours. To analyze the lysis, 1mL of S. aureus ATCC 25923 culture (OD600 1.0) was treated with massatide A or vancomycin (10×MIC) for 24h. An untreated sample was used as a negative control. […]
Experiments were performed in triplicate. […]

In data set [2] the test system is ICR mice. The data set can be described thus: Mouse acute toxicity test. It counts as in vivo. Here is the method:
Massatide A was dissolved in saline to the required concentration for the experiments. Six-week-old specific pathogen-free male ICR mice weighing 18–20 g were randomly divided into 4 groups (4 per group) and administered in a single intraperitoneal injection. Group 1 animals received 0.9% saline only, while groups 2–4 were given massatide A at 10, 30, and 50 mg/kg, respectively. The animals were continuously observed for general behavioral changes for 5 days and survival rate was recorded.

Regarding `C/C=C1\NC(=O)C(N(C)C)C(C)SC[C@@H](C(=O)N[C@H](CC)C(=O)N[C@H](C(=O)N[C@@H](C)C(=O)N[C@H](C)C(=O)N[C@@H](Cc2ccccc2)C(=O)N[C@@H](C)C(=O)NC2C(=O)NCC(=O)N[C@@H](Cc3ccc(O)cc3)C(=O)N[C@@H](Cc3ccccc3)C(=O)N[C@H](C)C(=O)N/C=C\SC2C)C(C)C)NC(=O)[C@@H]2CCCN2C(=O)[C@H](C(C)C)NC1=O` (some centres unmarked) [Massatide A (1), massatide A], in data set [1], the “lysis of the cell culture” value is recorded as “did not result in lysis”. In addition, the “number of new dead mouse” value is listed as 0 in data set [2] (10 mg/kg i.p., day 1, 4 mice per group); 0 in data set [2] (10 mg/kg i.p., day 2, 4 mice per group); 0 in data set [2] (10 mg/kg i.p., day 3, 4 mice per group); 0 in data set [2] (10 mg/kg i.p., day 5, 4 mice per group); 0 in data set [2] (30 mg/kg i.p., day 1, 4 mice per group); 0 in data set [2] (30 mg/kg i.p., day 2, 4 mice per group). Besides, the “number of new dead mouse” value in data set [2] (30 mg/kg i.p., day 3, 4 mice per group) is reported as 0; in data set [2] (30 mg/kg i.p., day 5, 4 mice per group), 0; in data set [2] (50 mg/kg i.p., day 1, 4 mice per group) it was 0; in data set [2] (50 mg/kg i.p., day 2, 4 mice per group), 0; in data set [2] (50 mg/kg i.p., day 3, 4 mice per group), 0; in data set [2] (50 mg/kg i.p., day 5, 4 mice per group), 0. Further, in data set [2] (male ICR mice, single intraperitoneal injection, 10-50 mg/kg, 5 days, 4 per group), the “survival / signs of acute toxicity” value is reported as “all treated mice survived without any signs of acute toxicity”.
